What was measured:
[1] = system: BJ-TERT/LT/ST/RAS^V12 cells; test: Nuclear morphology assay; type: cell-based, human; conditions: fluorescence microscopy, 18 hours
Source text: Applicants sought to characterize the type of cell death induced by CPT and erastin in tumorigenic BJ-TERT/LT/ST/RAS^V12 cells. […] To determine whether erastin or CPT induces apoptosis in their system, Applicants monitored the nuclear morphology of CPT- and erastin-treated tumorigenic cells using fluorescence microscopy. […] Since nuclear morphological change is required of apoptotic cells, Applicants conclude that cell death induced by erastin is non-apoptotic. […] Additionally, nuclei remained intact in erastin-treated tumor cells (FIG. 9).
200,000 tumorigenic BJ-TERT/LT/ST/RAS^V12 cells were seeded in 2 mL on glass coverslips in each well of a six-well dish, treated with nothing (NT), 9 μM erastin or 1.1 μM camptothecin (CPT) in growth medium for 18 hours while incubating at 37° C. with 5% CO2. Nuclei were stained with 25 μg/mL Hoechst 33342 (Molecular Probes) and viewed using an oil immersion 100× objective on a fluorescence microscope.

PANC-1 xenografts = test: PANC-1 tumor treatment study; type: in vivo, mouse; conditions: nude mice, once a day for five consecutive days
Protocol: The experimental plan for the PANC-1 study was essentially identical to that of the HT-1080 study outlined above in Example 10 with the following exceptions: approximately 3040 mg fragment of passaged PANC-1 tumor tissue was implanted subcutaneously in the right flank of an immunodeficient nude mouse. Tumor growth was monitored daily and when the tumors reached approximately 100 mm^3, animals harboring similarly sized tumors were group matched and compound dosing was initiated. Administration of compound 5 occurred once a day for five consecutive days at the doses listed below. In the PANC-1 xenografts, gemcitabine, administered at the maximum tolerated dose for the model, was used as a control. The gemcitabine regimen was 180 mg/kg […] on every third day over a period of 9 days.

HT-1080 xenografts = test: HT-1080 tumor treatment study; type: in vivo, mouse; conditions: nude mice, 50 or 100 mg/Kg QD×5 days IP
Protocol: • Nude Balb/c (Nu/Nu strain, Charles River Laboratories), female, 5-6 week old (˜20 g average body weight). Formulation of Test Articles:
Both compounds were formulated in an identical manner. For the 100 mg/kg dose level, each compound was delivered at a concentration of 10.0 mg/ml, in an injection volume of 0.2 ml. For the 50 mg/kg dose level, each compound was delivered at a concentration of 5.0 mg/ml, in an injection volume of 0.2 ml. For both dose levels, the vehicle contained 0.025% Tween-80, 0.01% benzyl alcohol, 35 mM acetic acid (HOAc), 100 mM potassium phosphate buffer, and 32 mM sucrose, pH 6.5.
• A: PRLX compound 6@100 mg/Kg, QD×5 days, IP, n=8 • B: PRLX compound 6@50 mg/Kg, QD×5 days, IP, n=8 • C: PRLX compound 5@100 mg/Kg, QD×5 days, IP, n=8 • D: PRLX compound 5@50 mg/Kg, QD×5 days, IP, n=8 • E: Vehicle Control, QD×5 days, IP, n=8 • F: Untreated Control, n=8 Treatment Schedule: […]
Starting on Day 1, all animals were weighed, and tumor dimensions (length (L) and width (W)) were measured, every other day. […]
The resulting tumor volume values were averaged for each study group for each time point, and were then plotted against time. Variance was expressed as standard error of the mean (±SEM).

[2] = system: BJ-TERT/LT/ST/RAS^V12 tumorigenic cells; test: Calcein AM viability assay, dilution series; type: cell-based, human; conditions: ST- and RAS^V12-dependent
Source text: (§1) Described here is work carried out to identify compounds with increased potency or activity in the presence of hTERT, LT, ST, E6, E7 or RAS^V12. Although the work described herein made use of hTERT, LT, ST, E6, E7 and RAS^V12 as transforming genes, future studies can make use of a wide variety of cancer-associated alleles using this methodology in order to define the signaling networks that involve many oncogenes and tumor suppressors. Engineered cell lines with these genetic elements were used to screen 23,550 compounds, including 20,000 compounds from a combinatorial library, 1,990 compounds from the National Cancer Institute diversity collection, and 1,540 biologically active known compounds that were selected and purchased by Applicant and formatted into a screenable collection. […] Cell viability was measured using the dye calcein acetoxymethyl ester (calcein AM) (Wang et al., 1993, Hum. Immunol. 37, 264-270), which is a non-fluorescent compound that freely diffuses into cells. […]
(§2) Calcein acetoxylmethyl ester (AM) is a cell membrane-permeable, non-fluorescent compound that is cleaved by intracellular esterases to form the anionic, cell-impermeable, fluorescent compound calcein. […] Total fluorescence intensity in each well was recorded on a Packard Fusion platereader, and converted to a percent inhibition of signal by subtracting the instrument background and dividing by the average signal obtained when cells were not treated with any compound. […]
(§3) Mean RFU (relative fluorescence units) for untreated cells was calculated by averaging columns 1, 2, and 23 (wells with cells but lacking compounds). The calcein background was calculated by averaging column 24 (wells with calcein, but lacking cells). Percentage inhibition of each well was calculated as [1−(RFU−calcein control)/(untreated cell−calcein control)*100]. […]

BJ primary cells = test: Calcein AM viability assay, dilution series; type: cell-based, human
Source text: as §1, §2, §3

SMILES	Antitumor effect in PANC-1 xenografts (PANC-1 xenografts)	Antitumor effect in HT-1080 xenografts (HT-1080 xenografts)	also measured
CC[C@@]1(O)C(=O)OCc2c1cc1n(c2=O)Cc2cc3ccccc3nc2-1 [Camptothecin]			Type of cell death / nuclear morphology [1]: karyorhexis and margination of chromatin were clearly visible
CCOc1ccccc1-n1c(C(C)N2CCNCC2)nc2ccccc2c1=O (centres unmarked) [Compound 6]	induction of tumor growth inhibition	induction of tumor growth inhibition	
CCOc1ccccc1-n1c(CN2CCNCC2)nc2ccccc2c1=O [Compound 5, 3-(2-ethoxyphenyl)-2-(piperazin-1-ylmethyl)quinazolin-4(3H)-one]	induction of tumor regression	induction of robust tumor regression	
CCOc1ccccc1-n1c(C(C)N2CCN(C(=O)COc3ccc(Cl)cc3)CC2)nc2ccccc2c1=O (centres unmarked) [Erastin]			Time to irreversible cell death [2]: 12 to 24 h
C=C1[C@@H](O)[C@@H]2O[C@]3(CC[C@H](/C=C/[C@@H](C)[C@@H]4CC(C)=C[C@@]5(O[C@H](C[C@@](C)(O)C(=O)O)CC[C@H]5O)O4)O3)CC[C@H]2O[C@@H]1[C@@H](O)C[C@H](C)[C@H]1O[C@@]2(CCCCO2)CC[C@H]1C [okadaic acid]			Sensitization of BJ primary cells to camptothecin (BJ primary cells; okadaic acid 3.4 nM with camptothecin): renders BJ cells sensitive to camptothecin; Effect on calcein AM viability staining of BJ cells (BJ primary cells; okadaic acid alone at 3.4 nM): no effect on its own
